# Test results: patent US7829593B2, “Glutamine-containing compositions and a method for increasing blood flow using same” (Ajinomoto Co., Inc., priority 2006, dated 2010)
# Like-named read-outs stand apart in the source and are kept apart here.
# What was measured:
# [1] = test system: blood flow in the capillary vessels of various organs of rats; experiment: Changes in blood flow in various organs after oral administration of glutamine to rats (microsphere method); type: in vivo, rat; conditions: for Change in blood flow after administration of amino acid, on the basis of 100% blood flow before administration: male SD rats, 50 mg/kg glutamine into the stomach
# Protocol: (a) Glutamine was given to rats and then the changes in blood flow in the capillary vessels of their various organs were determined. (b) Male SD rats having a body weight of about 400 g were subjected to the experiment. (c) The rats were anesthetized by pentobarbital, and catheters were placed in the left ventricle and the right […] of each rat. […] Through the catheter located from the carotid artery to the left ventricle, yellow and red microspheres were each injected before and after the administration of the amino acid solution. […] For the control group, distilled water was administered. (b) Operation: Catheters were inserted into the carotid and femoral arteries of the rats under anesthesia, the microspheres were injected via these catheters, and blood samples were taken. […] After a sufficient interval after the second injection of the microspheres, the rats were euthanized. The muscles, alimentary canals, liver, kidneys, spleen, heart, brain, fat tissue, and abdominal skin were extracted. The microspheres which had collected in each organ were removed and the change in the ratio of the blood flow was calculated from the amounts of microspheres present in each organ.
# [2] = test system: blood pressure and vascular resistance in humans; conditions: 78 kg average body weight, cited from earlier work
SMILES,"Change in blood flow after administration of amino acid, on the basis of 100% blood flow before administration ([1]; Abdominal skin) [%]","Change in blood flow after administration of amino acid, on the basis of 100% blood flow before administration ([1]; Brain) [%]","Change in blood flow after administration of amino acid, on the basis of 100% blood flow before administration ([1]; Dorsal skin) [%]","Change in blood flow after administration of amino acid, on the basis of 100% blood flow before administration ([1]; Duodenum) [%]","Change in blood flow after administration of amino acid, on the basis of 100% blood flow before administration ([1]; Fat tissues) [%]","Change in blood flow after administration of amino acid, on the basis of 100% blood flow before administration ([1]; Gastrocnemius) [%]","Change in blood flow after administration of amino acid, on the basis of 100% blood flow before administration ([1]; Heart) [%]","Change in blood flow after administration of amino acid, on the basis of 100% blood flow before administration ([1]; Kidney) [%]","Change in blood flow after administration of amino acid, on the basis of 100% blood flow before administration ([1]; Liver) [%]","Change in blood flow after administration of amino acid, on the basis of 100% blood flow before administration ([1]; Soleus) [%]","Change in blood flow after administration of amino acid, on the basis of 100% blood flow before administration ([1]; Spleen) [%]","Blood flow in the capillary vessels (result in words) ([1]; abdominal skin, spleen, liver, heart and brain, rats, 50 mg/kg glutamine)",Effect on blood pressure and vascular resistance ([2]; 6 g arginine intravenously),Effect on blood pressure and vascular resistance ([2]; 30 g arginine intravenously)
"NC(=O)CC[C@H](N)C(=O)O [Glutamine, glutamine]",146,163,154,136,137,105,259,113,226,146,146,significant increase in blood flow,–,–
N=C(N)NCCC[C@H](N)C(=O)O [arginine],–,–,–,–,–,–,–,–,–,–,–,–,did not have either effect,lowered blood pressure and vascular resistance
